Source: patent US20090105270A1, “Kinase inhibition and anticancer therapy” (priority 2007, published 2009)

Assays:
[1] = molecular target: CHK1(h) (Homo sapiens, UniProt O14757); test: Upstate kinase activity inhibition assay CHK1(h)
[2] = molecular target: T1, PKG1α(h) (Homo sapiens, UniProt Q13976); test: Upstate kinase activity inhibition assay PKG1α(h); format: biochemical; conditions: 40 min; read-out: percentage of enzyme activity that remains
T1 construct: purchased Upstate (KinaseProfiler service)

[3] = molecular target: T2, PKCη(h) (Homo sapiens, UniProt P24723); test: Upstate kinase activity inhibition assay PKCη(h); format: biochemical; conditions: 40 min; read-out: percentage of enzyme activity that remains
T2 construct: purchased Upstate (KinaseProfiler service)

[4] = molecular target: Fms(h) (Homo sapiens, UniProt P07333); test: Upstate kinase activity inhibition assay Fms(h); conditions: 40 min, read-out: percentage of enzyme activity that remains
Chain of Fms(h) (P07333 20-972): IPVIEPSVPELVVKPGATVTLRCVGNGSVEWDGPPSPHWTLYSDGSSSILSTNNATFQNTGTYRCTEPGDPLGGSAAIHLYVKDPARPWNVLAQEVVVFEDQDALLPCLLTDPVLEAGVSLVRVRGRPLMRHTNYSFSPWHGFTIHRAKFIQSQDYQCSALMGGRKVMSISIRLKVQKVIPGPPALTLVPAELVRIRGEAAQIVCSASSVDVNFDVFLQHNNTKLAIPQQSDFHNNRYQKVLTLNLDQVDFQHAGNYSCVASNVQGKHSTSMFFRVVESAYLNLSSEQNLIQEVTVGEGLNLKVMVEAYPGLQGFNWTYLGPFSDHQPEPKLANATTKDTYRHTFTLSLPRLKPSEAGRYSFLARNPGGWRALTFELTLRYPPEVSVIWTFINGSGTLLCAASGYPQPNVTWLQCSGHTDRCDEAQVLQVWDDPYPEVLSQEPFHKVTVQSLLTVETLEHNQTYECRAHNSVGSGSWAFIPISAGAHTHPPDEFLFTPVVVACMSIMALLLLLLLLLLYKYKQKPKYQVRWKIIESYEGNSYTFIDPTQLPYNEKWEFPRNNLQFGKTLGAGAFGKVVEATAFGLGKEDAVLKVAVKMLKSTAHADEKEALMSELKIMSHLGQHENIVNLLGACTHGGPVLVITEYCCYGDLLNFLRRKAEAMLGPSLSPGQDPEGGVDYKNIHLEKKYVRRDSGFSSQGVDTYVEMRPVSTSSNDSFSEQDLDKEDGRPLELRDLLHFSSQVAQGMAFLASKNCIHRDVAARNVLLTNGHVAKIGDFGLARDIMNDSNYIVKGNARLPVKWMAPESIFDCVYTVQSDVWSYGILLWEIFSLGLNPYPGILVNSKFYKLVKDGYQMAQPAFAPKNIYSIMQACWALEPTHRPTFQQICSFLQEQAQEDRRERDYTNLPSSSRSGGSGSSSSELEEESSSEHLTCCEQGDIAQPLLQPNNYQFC

[5] = molecular target: Syk(h) (Homo sapiens, UniProt P43405); test: Upstate kinase activity inhibition assay Syk(h)
[6] = molecular target: EphB3(h) (Homo sapiens, UniProt P54753); test: Upstate kinase activity inhibition assay EphB3(h); conditions: 40 min, read-out: percentage of enzyme activity that remains
Chain of EphB3(h) (P54753 34-998): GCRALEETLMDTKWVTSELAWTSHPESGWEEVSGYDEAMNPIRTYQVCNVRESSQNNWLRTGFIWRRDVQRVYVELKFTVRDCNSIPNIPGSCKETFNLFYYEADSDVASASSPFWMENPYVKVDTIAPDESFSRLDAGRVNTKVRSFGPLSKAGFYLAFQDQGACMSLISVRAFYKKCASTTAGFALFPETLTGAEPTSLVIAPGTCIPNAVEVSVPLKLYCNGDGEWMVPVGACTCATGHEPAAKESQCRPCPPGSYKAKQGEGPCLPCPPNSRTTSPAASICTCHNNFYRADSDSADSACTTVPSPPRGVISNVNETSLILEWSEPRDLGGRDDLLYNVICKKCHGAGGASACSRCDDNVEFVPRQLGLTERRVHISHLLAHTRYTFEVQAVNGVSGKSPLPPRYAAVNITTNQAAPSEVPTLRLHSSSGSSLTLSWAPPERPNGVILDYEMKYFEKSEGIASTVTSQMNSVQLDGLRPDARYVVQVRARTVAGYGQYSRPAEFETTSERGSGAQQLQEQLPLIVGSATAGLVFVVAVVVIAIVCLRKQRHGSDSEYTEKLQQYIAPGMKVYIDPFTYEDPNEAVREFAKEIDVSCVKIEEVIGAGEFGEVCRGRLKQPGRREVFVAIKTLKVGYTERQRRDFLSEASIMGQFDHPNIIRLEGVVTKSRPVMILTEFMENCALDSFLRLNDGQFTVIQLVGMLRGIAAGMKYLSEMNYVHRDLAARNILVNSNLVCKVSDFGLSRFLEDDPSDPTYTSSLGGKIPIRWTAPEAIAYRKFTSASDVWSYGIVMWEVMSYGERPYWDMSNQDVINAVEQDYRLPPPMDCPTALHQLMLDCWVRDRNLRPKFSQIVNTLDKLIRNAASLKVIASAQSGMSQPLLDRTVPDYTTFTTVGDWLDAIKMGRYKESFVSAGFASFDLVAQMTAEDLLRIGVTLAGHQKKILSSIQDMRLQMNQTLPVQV

[7] = molecular target: MLK1(h) (Homo sapiens, UniProt P80192); test: Upstate kinase activity inhibition assay MLK1(h); conditions: 40 min, read-out: percentage of enzyme activity that remains
[8] = molecular target: T3, CDK7/cyclinH/MAT1(h) (Homo sapiens, UniProt P50613); test: Upstate kinase activity inhibition assay CDK7/cyclinH/MAT1(h); format: biochemical; conditions: 40 min, read-out: percentage of enzyme activity that remains
T3 construct: purchased Upstate (KinaseProfiler service)

[9] = molecular target: MSK2(h) (Homo sapiens, UniProt O75676); test: Upstate kinase activity inhibition assay MSK2(h); conditions: 40 min, read-out: percentage of enzyme activity that remains
Chain of MSK2(h) (O75676 whole entry): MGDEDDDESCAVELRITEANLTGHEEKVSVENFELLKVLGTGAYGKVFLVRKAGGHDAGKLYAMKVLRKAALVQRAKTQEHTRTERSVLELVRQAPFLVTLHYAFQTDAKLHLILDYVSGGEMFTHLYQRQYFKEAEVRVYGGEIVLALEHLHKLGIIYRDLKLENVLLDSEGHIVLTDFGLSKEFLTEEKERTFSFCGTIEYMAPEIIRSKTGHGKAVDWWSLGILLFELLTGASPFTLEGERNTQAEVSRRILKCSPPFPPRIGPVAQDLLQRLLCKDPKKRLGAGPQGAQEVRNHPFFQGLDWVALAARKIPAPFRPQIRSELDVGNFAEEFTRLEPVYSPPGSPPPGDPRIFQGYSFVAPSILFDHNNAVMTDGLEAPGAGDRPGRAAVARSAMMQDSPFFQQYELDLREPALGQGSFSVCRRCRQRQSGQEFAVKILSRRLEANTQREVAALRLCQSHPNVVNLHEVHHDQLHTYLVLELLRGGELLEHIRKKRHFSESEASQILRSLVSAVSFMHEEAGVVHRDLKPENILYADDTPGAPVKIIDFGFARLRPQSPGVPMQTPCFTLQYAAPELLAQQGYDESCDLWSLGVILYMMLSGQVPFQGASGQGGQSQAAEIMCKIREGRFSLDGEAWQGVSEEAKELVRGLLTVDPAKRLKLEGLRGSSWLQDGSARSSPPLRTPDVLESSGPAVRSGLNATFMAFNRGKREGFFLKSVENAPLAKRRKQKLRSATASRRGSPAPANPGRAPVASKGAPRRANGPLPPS

[10] = molecular target: JNK2α2(h) (Homo sapiens, UniProt P45984); test: Upstate kinase activity inhibition assay JNK2α2(h)
[11] = molecular target: T4, cKit(D816V)(h) (Homo sapiens, UniProt P10721, D816V); test: Upstate kinase activity inhibition assay cKit(D816V)(h); format: biochemical; conditions: 40 min, read-out: percentage of enzyme activity that remains
T4 construct: purchased Upstate (KinaseProfiler service)

[12] = molecular target: PRAK(h) (Homo sapiens, UniProt Q8IW41); test: Upstate kinase activity inhibition assay PRAK(h); conditions: 40 min, read-out: percentage of enzyme activity that remains
Chain of PRAK(h) (Q8IW41 whole entry): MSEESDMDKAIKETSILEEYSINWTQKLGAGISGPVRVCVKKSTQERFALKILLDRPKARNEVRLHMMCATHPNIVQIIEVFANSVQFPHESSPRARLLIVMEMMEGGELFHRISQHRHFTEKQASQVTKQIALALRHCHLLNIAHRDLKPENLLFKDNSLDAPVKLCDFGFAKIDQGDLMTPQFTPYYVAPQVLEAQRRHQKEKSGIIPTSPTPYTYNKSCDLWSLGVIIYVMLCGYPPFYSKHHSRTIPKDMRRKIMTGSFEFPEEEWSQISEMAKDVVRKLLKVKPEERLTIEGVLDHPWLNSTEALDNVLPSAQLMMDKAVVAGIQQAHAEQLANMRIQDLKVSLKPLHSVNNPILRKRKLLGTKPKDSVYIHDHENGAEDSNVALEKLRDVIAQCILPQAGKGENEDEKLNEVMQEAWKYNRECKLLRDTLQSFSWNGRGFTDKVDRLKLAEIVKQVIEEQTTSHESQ

[13] = molecular target: Plk3(h) (Homo sapiens, UniProt Q9H4B4); test: Upstate kinase activity inhibition assay Plk3(h); conditions: 40 min, read-out: percentage of enzyme activity that remains
[14] = molecular target: TAK1(h) (Homo sapiens, UniProt O43318); test: Upstate kinase activity inhibition assay TAK1(h); conditions: 40 min, read-out: percentage of enzyme activity that remains
[15] = molecular target: NEK3(h) (Homo sapiens, UniProt P51956); test: Upstate kinase activity inhibition assay NEK3(h); conditions: 40 min, read-out: percentage of enzyme activity that remains
[16] = molecular target: TBK1(h) (Homo sapiens, UniProt Q9UHD2); test: Upstate kinase activity inhibition assay TBK1(h); conditions: 40 min, read-out: percentage of enzyme activity that remains
[17] = molecular target: T5, JAK2(h) (Homo sapiens, UniProt O60674); test: Upstate kinase activity inhibition assay JAK2(h); format: biochemical
T5 construct: purchased Upstate (KinaseProfiler service)

[18] = molecular target: PAK4(h) (Homo sapiens, UniProt O96013); test: Upstate kinase activity inhibition assay PAK4(h); conditions: 40 min, read-out: percentage of enzyme activity that remains
[19] = molecular target: CHK2(h) (Homo sapiens, UniProt O96017); test: Upstate kinase activity inhibition assay CHK2(h); conditions: 40 min, read-out: percentage of enzyme activity that remains
[20] = molecular target: T6, IKKα(h) (Homo sapiens, UniProt O15111); test: Upstate kinase activity inhibition assay IKKα(h); format: biochemical; conditions: 40 min; read-out: percentage of enzyme activity that remains
T6 construct: purchased Upstate (KinaseProfiler service)

[21] = molecular target: MLCK(h) (Homo sapiens, UniProt Q9H1R3); test: Upstate kinase activity inhibition assay MLCK(h); conditions: 40 min, read-out: percentage of enzyme activity that remains
[22] = molecular target: ARK5(h) (Homo sapiens, UniProt O60285); test: Upstate kinase activity inhibition assay ARK5(h)
[23] = molecular target: T7, MST1(h) (Homo sapiens, UniProt Q13043); test: Upstate kinase activity inhibition assay MST1(h); format: biochemical
T7 construct: purchased Upstate (KinaseProfiler service)

[24] = molecular target: Flt4(h) (Homo sapiens, UniProt P35916); test: Upstate kinase activity inhibition assay Flt4(h); conditions: 40 min, read-out: percentage of enzyme activity that remains
[25] = molecular target: JAK3(h) (Homo sapiens, UniProt P52333); test: Upstate kinase activity inhibition assay JAK3(h); conditions: 40 min, read-out: percentage of enzyme activity that remains
Chain of JAK3(h) (P52333 whole entry): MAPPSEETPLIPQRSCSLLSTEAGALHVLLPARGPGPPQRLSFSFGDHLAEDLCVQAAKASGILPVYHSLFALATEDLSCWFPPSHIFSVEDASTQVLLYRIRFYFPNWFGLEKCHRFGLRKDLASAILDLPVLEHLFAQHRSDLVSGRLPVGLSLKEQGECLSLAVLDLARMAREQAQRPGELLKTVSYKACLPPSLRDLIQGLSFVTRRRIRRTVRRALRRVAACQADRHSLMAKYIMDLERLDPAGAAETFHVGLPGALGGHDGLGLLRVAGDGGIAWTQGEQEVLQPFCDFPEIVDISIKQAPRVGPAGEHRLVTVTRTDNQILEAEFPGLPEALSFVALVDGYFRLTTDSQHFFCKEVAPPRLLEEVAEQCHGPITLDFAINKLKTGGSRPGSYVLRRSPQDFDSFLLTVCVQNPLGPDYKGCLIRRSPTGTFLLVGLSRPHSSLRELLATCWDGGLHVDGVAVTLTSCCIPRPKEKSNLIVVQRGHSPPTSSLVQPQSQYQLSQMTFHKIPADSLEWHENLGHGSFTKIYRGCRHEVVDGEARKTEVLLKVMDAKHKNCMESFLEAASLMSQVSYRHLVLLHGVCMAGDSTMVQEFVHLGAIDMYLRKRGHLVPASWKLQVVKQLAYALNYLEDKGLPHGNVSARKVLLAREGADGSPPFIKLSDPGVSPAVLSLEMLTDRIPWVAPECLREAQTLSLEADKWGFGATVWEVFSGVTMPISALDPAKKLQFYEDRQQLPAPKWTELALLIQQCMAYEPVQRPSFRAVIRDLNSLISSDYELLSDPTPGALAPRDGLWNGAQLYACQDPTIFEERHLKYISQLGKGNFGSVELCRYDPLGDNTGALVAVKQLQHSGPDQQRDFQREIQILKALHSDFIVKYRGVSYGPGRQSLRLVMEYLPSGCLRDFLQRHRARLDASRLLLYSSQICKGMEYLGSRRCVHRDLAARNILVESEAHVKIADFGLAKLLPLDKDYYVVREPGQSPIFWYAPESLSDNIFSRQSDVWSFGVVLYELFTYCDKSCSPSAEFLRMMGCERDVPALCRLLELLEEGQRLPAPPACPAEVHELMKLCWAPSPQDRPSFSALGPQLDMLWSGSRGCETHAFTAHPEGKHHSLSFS

[26] = molecular target: Rsk3(h) (Homo sapiens, UniProt Q15349); test: Upstate kinase activity inhibition assay Rsk3(h); conditions: 40 min, read-out: percentage of enzyme activity that remains
Chain of Rsk3(h) (Q15349 whole entry): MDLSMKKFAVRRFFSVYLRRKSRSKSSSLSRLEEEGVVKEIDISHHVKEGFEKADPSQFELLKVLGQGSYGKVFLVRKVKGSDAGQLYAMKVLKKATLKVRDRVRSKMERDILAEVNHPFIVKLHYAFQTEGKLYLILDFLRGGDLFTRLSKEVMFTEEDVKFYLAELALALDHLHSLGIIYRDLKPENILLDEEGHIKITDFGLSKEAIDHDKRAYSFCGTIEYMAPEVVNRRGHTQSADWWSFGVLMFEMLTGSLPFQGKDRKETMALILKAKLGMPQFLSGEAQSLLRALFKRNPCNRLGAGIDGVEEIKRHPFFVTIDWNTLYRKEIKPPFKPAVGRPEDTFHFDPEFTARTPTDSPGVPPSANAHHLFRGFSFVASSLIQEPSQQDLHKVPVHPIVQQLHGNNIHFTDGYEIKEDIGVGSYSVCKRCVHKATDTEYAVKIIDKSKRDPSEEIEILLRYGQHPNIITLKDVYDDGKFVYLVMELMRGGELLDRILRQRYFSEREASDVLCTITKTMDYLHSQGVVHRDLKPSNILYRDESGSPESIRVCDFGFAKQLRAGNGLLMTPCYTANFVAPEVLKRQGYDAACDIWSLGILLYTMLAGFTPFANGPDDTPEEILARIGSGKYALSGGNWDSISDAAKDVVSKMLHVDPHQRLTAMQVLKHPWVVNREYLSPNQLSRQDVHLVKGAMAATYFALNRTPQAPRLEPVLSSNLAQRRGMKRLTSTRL

[27] = molecular target: T8, Lyn(h) (Homo sapiens, UniProt P07948); test: Upstate kinase activity inhibition assay Lyn(h); format: biochemical; conditions: 40 min; read-out: percentage of enzyme activity that remains
T8 construct: purchased Upstate (KinaseProfiler service)

[28] = molecular target: T9, NEK6(h) (Homo sapiens, UniProt Q9HC98); test: Upstate kinase activity inhibition assay NEK6(h); format: biochemical; conditions: 40 min; read-out: percentage of enzyme activity that remains
T9 construct: purchased Upstate (KinaseProfiler service)

[29] = molecular target: ITK(h) (Homo sapiens, UniProt Q08881); test: Upstate kinase activity inhibition assay ITK(h); conditions: 4 μM Compound E

**Q.** Which “percentage of enzyme activity that remains” value ([1]; 0.2 μM Compound E) does the source give for `Cc1cc(Nc2cc(N3CCN(C)CC3)nc(Sc3ccc(NC(=O)C4CC4)cc3)n2)n[nH]1` [Compound E, Cyclopropane carboxylic acid {4-[4-(4-methyl-piperazin-1-yl)-6-(5-methyl-2H-pyrazol-3-ylamino)-pyrimidin-2-ylsulphanyl]-phenyl}-amide] here?
**A.** 99%

**Q.** And the “percentage of enzyme activity that remains” value ([1]; 4 μM Compound E)?
**A.** 92%

**Q.** And the remaining activity at 4 µM [2]?
**A.** 89%

**Q.** And the remaining activity at 0.2 µM [3]?
**A.** 98%

**Q.** What about the remaining activity at 4 µM [3] of the same molecule?
**A.** 100%

**Q.** And the remaining activity at 0.2 µM [4]?
**A.** 139%

**Q.** And the remaining activity at 4 µM [4]?
**A.** 54%

**Q.** What about the “percentage of enzyme activity that remains” value ([5]; 0.2 μM Compound E) of the same molecule?
**A.** 113%

**Q.** What about the “percentage of enzyme activity that remains” value ([5]; 4 μM Compound E) of the same molecule?
**A.** 63%

**Q.** And the remaining activity at 0.2 µM [6]?
**A.** 99%

**Q.** And the remaining activity at 4 µM [6]?
**A.** 89%

**Q.** What about the remaining activity at 0.2 µM [7] of the same molecule?
**A.** 54%

**Q.** And the remaining activity at 4 µM [7]?
**A.** 9%

**Q.** And the remaining activity at 0.2 µM [8]?
**A.** 113%

**Q.** What about the remaining activity at 4 µM [8] of the same molecule?
**A.** 94%

**Q.** What about the remaining activity at 0.2 µM [9] of the same molecule?
**A.** 117%

**Q.** And the remaining activity at 4 µM [9]?
**A.** 97%

**Q.** What about the “percentage of enzyme activity that remains” value ([10]; 0.2 μM Compound E) of the same molecule?
**A.** 107%

**Q.** What about the “percentage of enzyme activity that remains” value ([10]; 4 μM Compound E) of the same molecule?
**A.** 105%

**Q.** What about the remaining activity at 0.2 µM [11] of the same molecule?
**A.** 89%

**Q.** And the remaining activity at 4 µM [11]?
**A.** 79%

**Q.** And the remaining activity at 0.2 µM [12]?
**A.** 114%

**Q.** And the remaining activity at 4 µM [12]?
**A.** 109%

**Q.** And the remaining activity at 0.2 µM [13]?
**A.** 107%

**Q.** What about the remaining activity at 4 µM [13] of the same molecule?
**A.** 105%

**Q.** And the remaining activity at 0.2 µM [14]?
**A.** 99%

**Q.** And the remaining activity at 4 µM [14]?
**A.** 66%

**Q.** And the remaining activity at 0.2 µM [15]?
**A.** 102%

**Q.** What about the remaining activity at 4 µM [15] of the same molecule?
**A.** 125%

**Q.** And the remaining activity at 0.2 µM [16]?
**A.** 106%

**Q.** And the remaining activity at 4 µM [16]?
**A.** 57%

**Q.** And the “percentage of enzyme activity that remains” value ([17]; 0.2 μM Compound E)?
**A.** 75%

**Q.** And the “percentage of enzyme activity that remains” value ([17]; 4 μM Compound E)?
**A.** 19%

**Q.** And the remaining activity at 0.2 µM [18]?
**A.** 85%

**Q.** What about the remaining activity at 4 µM [18] of the same molecule?
**A.** 75%

**Q.** And the remaining activity at 0.2 µM [19]?
**A.** 99%

**Q.** What about the remaining activity at 4 µM [19] of the same molecule?
**A.** 89%

**Q.** And the remaining activity at 0.2 µM [20]?
**A.** 103%

**Q.** What about the remaining activity at 4 µM [20] of the same molecule?
**A.** 99%

**Q.** What about the remaining activity at 0.2 µM [21] of the same molecule?
**A.** 95%

**Q.** What about the remaining activity at 4 µM [21] of the same molecule?
**A.** 88%

**Q.** And the “percentage of enzyme activity that remains” value ([22]; 0.2 μM Compound E)?
**A.** 53%

**Q.** What about the “percentage of enzyme activity that remains” value ([22]; 4 μM Compound E) of the same molecule?
**A.** 11%

**Q.** What about the “percentage of enzyme activity that remains” value ([23]; 0.2 μM Compound E) of the same molecule?
**A.** 88%

**Q.** What about the “percentage of enzyme activity that remains” value ([23]; 4 μM Compound E) of the same molecule?
**A.** 38%

**Q.** What about the remaining activity at 4 µM [24] of the same molecule?
**A.** 10%

**Q.** What about the remaining activity at 0.2 µM [25] of the same molecule?
**A.** 107%

**Q.** And the remaining activity at 4 µM [25]?
**A.** 105%

**Q.** And the remaining activity at 0.2 µM [26]?
**A.** 96%

**Q.** And the remaining activity at 4 µM [26]?
**A.** 60%

**Q.** And the remaining activity at 0.2 µM [27]?
**A.** 45%

**Q.** What about the remaining activity at 4 µM [27] of the same molecule?
**A.** 3%

**Q.** What about the remaining activity at 0.2 µM [28] of the same molecule?
**A.** 86%

**Q.** And the remaining activity at 4 µM [28]?
**A.** 85%

**Q.** And the “percentage of enzyme activity that remains” value [29]?
**A.** 12%
